Earlier results on one compound are cited in patent US20100022590A1, “Novel compounds” (BIOVITRUM AB (publ.), priority 2008, published 2010).

The test system of data set [1] is intraocular pressure (IOP). To be noted: oral administration, healthy volunteers.
Data set [2] concerns intraocular pressure (IOP). To be noted: orally administered, patients with ocular hypertension.

As for `CC1(C)[C@@H](OC(=O)CCC(=O)O)CC[C@]2(C)[C@H]3C(=O)C=C4[C@@H]5C[C@@](C)(C(=O)O)CC[C@]5(C)CC[C@@]4(C)[C@]3(C)CC[C@@H]12` [carbenoxolone], the “reduction of intraocular pressure (IOP)” value in data set [1] is 20%. In addition, in data set [2], the IOP reduction was 10%.
